Results as given in patent publication US4073942A, “Halo-substituted hydroxybenzyl-amines as secretolytic agents” (Boehringer Ingelheim GmbH, priority 1972, dated 1978).
Structures can show the parent of a compound that is named as a salt.

Experiments:
Format in all cases: in vivo
[1] = system: coughs induced by citric acid spray in awake white rats; assay: Antitussive activity: change in number of citric acid-induced coughs after oral application; details: 50 mgm/kg oral, compared to control group
[2] = system: stomach ulcers in female rats; assay: Anti-ulcerogenic activity: acetic acid-induced stomach ulcers; details: three weeks
Description: The standard pharmacological test method of […] et al, Jap. J. Pharmac. 19, 418 (1969), was used. The abdominal cavity of female rats having a body weight of 220 to 350 gm under ether anesthesia was opened, and the stomach was exposed. […] The controls received only pulverized rat food. After three weeks, the animals were sacrificed, their stomachs were excised, and the size of the ulcer was determined by measuring its length and width.

[3] = Acute toxicity after oral application, 72 hours observation; details: mouse, in vivo, po
Description: (§1) The acute toxicity was determined on groups of 5 white mice after oral application of a dose ranging between 500 mgm/kg and 5000 mgm/kg per animal (time of observation: 72 hours).

white mice = assay: as above; details: white mice, 72 hours
Description: as §1

[4] = system: secretion in anesthetized rabbits or guinea pigs; assay: Expectorant effect: secretolytic activity, increase of secretion within 2 hours after oral application; details: 8 mgm/kg oral
Description: The increase of secretion within 2 hours was calculated before and after application of the substance see Perry and Boyd in Pharmakol. exp. Therap. 73, 65 (1941)!.

cats = assay: Circulatory effect in cats under chloralose-urethane narcosis after intravenous application; details: 3 animals per dose
Description: The circulatory effect in cats was determined under chloralose-urethane narcosis after intravenous application of the test compound (3 animals per dose).

[5] = white mice, 72 hours observation

SMILES	Average change in the number of coughs, in per cent, 30 minutes after oral application of 50 mgm/kg [1] [%]	% change in ulcer size versus controls ([2]; 50 mgm/kg p.o. in daily food) [%]	% change in ulcer size versus controls ([2]; 100 mgm/kg p.o. in daily food) [%]	LD50 at 72 h [3, 5] [mg/kg]	animals dead (white mice; 1000 mgm/kg p.o.)	change in vivo at 8 mg/kg [4] [%]	animals dead (white mice; 500 mgm/kg p.o.)	animals dead (white mice; 5000 mgm/kg p.o.)	Circulatory effect in cats (cats; 8 mgm/kg)	Circulatory effect in cats (cats; 4 mgm/kg)	LD50 at 72 h [3] [mg/kg]
Cl.Oc1c(Br)cc(CN[C@H]2CCC[C@@H](O)C2)cc1Br (relative stereo) [C, N-(cis-3'-hydroxy-cyclohexyl)-3,5-dibromo-4-hydroxy-benzylamine hydrochloride]	-35	-11	-29	> 1000	0 of 5						
CN(Cc1cc(Cl)c(O)c(Br)c1)C1CCCCC1.Cl [E, n-methyl-N-cyclohexyl-3-bromo-5-chloro-4-hydroxy-benzylamine hydrochloride]				> 500		65	0 of 5				
CC(CO)(CO)NCc1cc(Br)cc(Br)c1O [G, N-(dihydroxy-tert.butyl)-3,5-dibromo-2-hydroxy-benzylamine hydrochloride]				> 5000		88		0 of 5			
Oc1c(Br)cccc1CN[C@H]1CC[C@H](O)CC1 [D, N-(trans-4'-hydroxy-cyclohexyl)-3-bromo-2-hydroxy-benzylamine]				> 500		66	0 of 5				
CN(Cc1cc(Br)cc(Br)c1O)C1CCCCC1 [J, N-methyl-N-cyclohexyl-(3,5-dibromo-2-hydroxy)-benzylamine hydrochloride]		-73	-82	> 5000				1 of 5			
CCN(Cc1cc(Br)c(O)c(Br)c1)C1CCCCC1 [B, N-ethyl-N-cyclohexyl-3,5-dibromo-4-hydroxy-benzylamine]	-34			> 1000	0 of 5	87			no change		
CCN(Cc1cc(Br)cc(Br)c1O)C1CCCCC1 [Compound A, N-ethyl-N-cyclohexyl-(3,5-dibromo-2-hydroxy)-benzylamine hydrochloride]	-38	-39	-54		0 of 5	81				no change	> 1000
CC(CO)(CO)NCc1cc(Cl)c(O)c(Cl)c1 [H, N-(dihydroxy-tert.butyl)-3,5-dichloro-4-hydroxy-benzylamine hydrochloride]						88					
CCC(C)(C)NCc1cc(Br)cc(Br)c1O.Cl [Compound I, N-tert.pentyl-3,5-dibromo-2-hydroxy-benzylamine hydrochloride]				> 5000		80		0 of 5			
Oc1c(Br)cc(Br)cc1CN[C@H]1CC[C@H](O)CC1 [F, N-(trans-4'-hydroxy-cyclohexyl)-3,5-dibromo-2-hydroxy-benzylamine]		-59	-78	> 5000		70		0 of 5			
